Data reported in US10183950B2, “Thienopyrimidine inhibitors of atypical protein kinase C” (Cancer Research Technology Limited, priority 2011, dated 2019).

These compounds were tested against T1, full-length human PKCι (Homo sapiens, UniProt P41743) (assay: PKCι IC50 IMAP fluorescence polarisation assay, full-length enzyme). Conditions: full length PKCi at 15 μM ATP; read-out: IC50 in IMAP assay against full length PKCi.
T1 construct: Recombinant, full-length human PKCι expressed in Sf21 insect cells is also commercially available; purchased; host or cells: Sf21 insect cells
T1 sequence (P41743 1-596): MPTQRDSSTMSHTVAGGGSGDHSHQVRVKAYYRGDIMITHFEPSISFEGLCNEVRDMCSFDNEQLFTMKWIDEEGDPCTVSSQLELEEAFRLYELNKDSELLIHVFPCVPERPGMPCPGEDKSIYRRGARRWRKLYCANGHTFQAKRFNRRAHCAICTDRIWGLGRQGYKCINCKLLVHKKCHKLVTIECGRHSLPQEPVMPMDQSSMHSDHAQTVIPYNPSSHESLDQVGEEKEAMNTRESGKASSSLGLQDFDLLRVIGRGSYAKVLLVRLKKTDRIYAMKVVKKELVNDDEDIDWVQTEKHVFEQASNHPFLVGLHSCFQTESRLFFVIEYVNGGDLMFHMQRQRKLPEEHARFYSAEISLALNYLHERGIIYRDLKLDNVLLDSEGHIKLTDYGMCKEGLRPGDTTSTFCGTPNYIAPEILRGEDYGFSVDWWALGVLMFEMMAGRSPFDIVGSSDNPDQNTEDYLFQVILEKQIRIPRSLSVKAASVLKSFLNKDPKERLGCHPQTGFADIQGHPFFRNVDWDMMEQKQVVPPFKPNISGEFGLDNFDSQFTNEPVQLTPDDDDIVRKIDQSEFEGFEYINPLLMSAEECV
Type: biochemical

Row | IC50 | Structure (SMILES)
1 | < 0.1 µM | N[C@H](CNc1nc(-c2ccncc2)nc2c(/C=C/C3CC3)csc12)Cc1ccccc1 [compound 405, (S)-N*1*-[7-((E)-2-Cyclopropyl-vinyl)-2-pyridin-4-yl-thieno[3,2-d]pyrimidin-4-yl]-3-phenyl-propane-1,2-diamine]
2 | 1 to 10 µM | C[C@@H](O)CNc1cc(-c2nc(N[C@@H]3CCNC3)c3sccc3n2)ccn1 [compound 592, (R)-1-{4-[4-((R)-Pyrrolidin-3-ylamino)-thieno[3,2-d]pyrimidin-2-yl]-pyridin-2-ylamino}-propan-2-ol]
3 | 1 to 10 µM | CC(C)(O)C#Cc1csc2c(N[C@@H]3CCNC3)nc(-c3ccncc3F)nc12 [compound 519, 4-[2-(3-Fluoro-pyridin-4-yl)-4-((R)-pyrrolidin-3-ylamino)-thieno[3,2-d]pyrimidin-7-yl]-2-methyl-but-3-yn-2-ol]
4 | 1 to 10 µM | CC(C)(C)NC(=O)Nc1cc(-c2nc(N[C@@H]3CCNC3)c3sccc3n2)ccn1 [compound 582, 1-tert-Butyl-3-{4-[4-((R)-pyrrolidin-3-ylamino)-thieno[3,2-d]pyrimidin-2-yl]-pyridin-2-yl}-urea]
5 | 10 to 40 µM | C[C@H](N)CNc1nc(-c2ccncc2F)nc2ccsc12 [compound 353, (S)-N*1*-[2-(3-Fluoro-pyridin-4-yl)-thieno[3,2-d]pyrimidin-4-yl]-propane-1,2-diamine]
6 | 0.1 to 1 µM | NC(CNc1nc(-c2ccncc2F)nc2c(-c3ccco3)csc12)Cc1ccccc1 (stereo in doubt) [compound 432, (R)-N*1*-[2-(3-Fluoro-pyridin-4-yl)-7-furan-2-yl-thieno[3,2-d]pyrimidin-4-yl]-3-phenyl-propane-1,2-diamine]
7 | 1 to 10 µM | CC(C)(C)c1sc2c(NC[C@@H](N)Cc3ccccc3)nc(-c3ccncc3)nc2c1Br [compound 334, (S)-N*1*-(7-Bromo-6-tert-butyl-2-pyridin-4-yl-thieno[3,2-d]pyrimidin-4-yl)-3-phenyl-propane-1,2-diamine]
8 | 1 to 10 µM | Nc1csc2c(N[C@@H]3CCNC3)nc(-c3ccncc3)nc12 [compound 567, 2-Pyridin-4-yl-N*4*-(R)-pyrrolidin-3-yl-thieno[3,2-d]pyrimidine-4,7-diamine]
9 | 1 to 10 µM | c1cc(-c2nc(N[C@@H]3CCNC3)c3sccc3n2)cc(Nc2ccc(CN3CCCC3)cc2)n1 [compound 611, (R)-Pyrrolidin-3-yl-{2-[2-(4-pyrrolidin-1-ylmethyl-phenylamino)-pyridin-4-yl]-thieno[3,2-]pyrimidin-4-yl}-amine]
10 | 10 to 40 µM | COc1cccc(-c2c(C(C)(C)C)sc3c(NC[C@@H](N)Cc4ccccc4)nc(-c4ccncc4)nc23)c1 [compound 441, (S)-N*1*-[6-tert-Butyl-7-(3-methoxy-phenyl)-2-pyridin-4-yl-thieno[3,2-d]pyrimidin-4-yl]-3-phenyl-propane-1,2-diamine]
11 | < 0.1 µM | N[C@H](CNc1nc(-c2ccncc2)nc2c(Br)csc12)Cc1ccccc1 [compound 336, (S)—N*1*-(7-Bromo-2-pyridin-4-yl-thieno[3,2-d]pyrimidin-4-yl)-3-phenyl-propane-1,2-diamine]
12 | 0.1 to 1 µM | N[C@H](CNc1nc(-c2ccncc2)nc2c(C#Cc3ccccc3F)csc12)Cc1ccccc1 [compound 530, (S)-N*1*-[7-(2-Fluoro-phenylethynyl)-2-pyridin-4-yl-thieno[3,2-d]pyrimidin-4-yl]-3-phenyl-propane-1,2-diamine]
13 | 1 to 10 µM | CCC(O)(C#Cc1csc2c(NC[C@@H](N)Cc3ccccc3)nc(-c3ccncc3)nc12)CC [compound 525, 1-[4-(2-Amino-3-phenyl-propylamino)-2-pyridin-4-yl-thieno[3,2-d]pyrimidin-7-yl]-3-ethyl-pent-1-yn-3-ol]
14 | < 0.1 µM | Cc1cc(-c2csc3c(NC[C@@H](N)Cc4ccccc4)nc(-c4ccncc4)nc23)n[nH]1 [compound 569, (S)-N*1*-[7-(5-Methyl-1H-pyrazol-3-yl)-2-pyridin-4-yl-thieno[3,2-d]pyrimidin-4-yl]-3-phenyl-propane-1,2-diamine]
15 | 1 to 10 µM | Cc1sc2c(NC[C@@H](N)Cc3ccccc3)nc(-c3ccncc3)nc2c1-c1ccc(F)nc1 [compound 438, (S)-N*1*-[7-(6-Fluoro-pyridin-3-yl)-6-methyl-2-pyridin-4-yl-thieno[3,2-d]pyrimidin-4-yl]-3-phenyl-propane-1,2-diamine]
16 | 0.1 to 1 µM | CN1CCN(c2cccc(Nc3cc(-c4nc(N[C@@H]5CCNC5)c5sccc5n4)ccn3)c2)CC1 [compound 605, (2-{2-[3-(4-Methyl-piperazin-1-yl)-phenylamino]-pyridin-4-yl}-thieno[3,2-d]pyrimidin-4-yl)-(R)-pyrrolidin-3-yl-amine]
17 | 1 to 10 µM | NC(CNc1nc(-c2ccncc2F)nc2c(-c3ccc(CO)cc3)csc12)Cc1ccccc1 (stereo in doubt) [compound 424, {4-[4-((R)-2-Amino-3-phenyl-propylamino)-2-(3-fluoro-pyridin-4-yl)-thieno[3,2-d]pyrimidin-7-yl]-phenyl}-methanol]
18 | 10 to 40 µM | CCC(C)(C)C(=O)Nc1csc2c(NC[C@@H](N)Cc3ccccc3)nc(-c3ccncc3)nc12 [compound 472, N-[4-((S)-2-Amino-3-phenyl-propylamino)-2-pyridin-4-yl-thieno[3,2-d]pyrimidin-7-yl]-2,2-dimethyl-butyramide]
19 | 1 to 10 µM | Cc1csc(-c2csc3c(NC[C@@H](N)Cc4ccccc4)nc(-c4ccncc4)nc23)c1 [compound 395, (S)-N*1*-[7-(4-Methyl-thiophen-2-yl)-2-pyridin-4-yl-thieno[3,2-d]pyrimidin-4-yl]-3-phenyl-propane-1,2-diamine]
20 | 1 to 10 µM | c1cc(-c2nc(N[C@@H]3CCNC3)c3sccc3n2)cc(Sc2cc(-c3nc(N[C@@H]4CCNC4)c4sccc4n3)ccn2)n1 [compound 632]
21 | 10 to 40 µM | CC(C)(C)c1sc2c(NCCN)nc(-c3ccncc3)nc2c1Br [compound 333, N*1*-(7-Bromo-6-tert-butyl-2-pyridin-4-yl-thieno[3,2-d]pyrimidin-4-yl)-ethane-1,2-diamine]
22 | 10 to 40 µM | N[C@H](CNc1nc(-c2ccnc(NC(=O)c3cccs3)c2)nc2ccsc12)Cc1ccc(C(F)(F)F)cc1 [compound 630, Thiophene-2-carboxylic acid (4-{4-[(S)-2-amino-3-(4-trifluoromethyl-phenyl)-propylamino]-thieno[3,2-d]pyrimidin-2-yl}-pyridin-2-yl)-amide]
23 | 1 to 10 µM | Cc1sc2c(NC[C@H](C)N)nc(-c3ccncc3)nc2c1Br [compound 331, (S)-N*1*-(7-Bromo-6-methyl-2-pyridin-4-yl-thieno[3,2-d]pyrimidin-4-yl)-propane-1,2-diamine]
24 | 1 to 10 µM | Cc1sc2c(NC[C@H](N)Cc3ccccc3)nc(-c3ccncc3)nc2c1Br [compound 329, (R)-N*1*-(7-Bromo-6-methyl-2-pyridin-4-yl-thieno[3,2-d]pyrimidin-4-yl)-3-phenyl-propane-1,2-diamine]
25 | 10 to 40 µM | Fc1cnccc1-c1nc(N[C@@H]2CCNC2)c2scc(Nc3ccccn3)c2n1 [compound 495, 2-(3-Fluoro-pyridin-4-yl)-N*7*-pyridin-2-yl-N*4*- (R)-pyrrolidin-3-yl-thieno[3,2-d]pyrimidine-4,7-diamine]
26 | 1 to 10 µM | N[C@H](CNc1nc(-c2ccncc2F)nc2c(-c3cc(C(F)(F)F)[nH]n3)csc12)Cc1ccccc1 [compound 421, (S)-N*1*-[2-(3-Fluoro-pyridin-4-yl)-7-(5-trifluoromethyl-2H-pyrazol-3-yl)-thieno[3,2-d]pyrimidin-4-yl]-3-phenyl-propane-1,2-diamine]
27 | 0.1 to 1 µM | CNCC#Cc1csc2c(NC[C@@H](N)Cc3ccccc3)nc(-c3ccncc3)nc12 [compound 538, (S)-N*1*-[7-(3-Methylamino-prop-1-ynyl)-2-pyridin-4-yl-thieno[3,2-d]pyrimidin-4-yl]-3-phenyl-propane-1,2-diamine]
28 | 0.1 to 1 µM | N[C@H](CNc1nc(-c2ccncc2)nc2c(C#CCCF)csc12)Cc1ccccc1 [compound 546, (S)-N*1*-[7-(4-Fluoro-but-1-ynyl)-2-pyridin-4-yl-thieno[3,2-d]pyrimidine]

Same assay, conditions: full length PKCi at 15 μM ATP; read-out: IC50 in IMAP assay against full length PKCi (Activity)

Row | IC50 | Structure (SMILES)
29 | < 0.1 µM | Cc1sc2c(NC[C@@H](N)Cc3ccccc3)nc(-c3ccncc3)nc2c1Br [compound 300, (S)—N*1*-(7-bromo-6-methyl-2-pyridin-4-yl-thieno[3,2-d]pyrimidin-4-yl)-3-phenyl-propane-1,2-diamine]
30 | 1 to 10 µM | Cc1ccc(C[C@H](N)CNc2nc(-c3ccncc3)nc3sc4c(c23)CCCC4)cc1 [compound 46]
31 | 10 to 40 µM | CCCCC(=O)N1CCc2c(sc3nc(-c4ccncc4)nc(NCCN)c23)C1 [compound 110, 1-[4-(2-Amino-ethylamino)-2-pyridin-4-yl-5,8-dihydro-6H-pyrido[4′,3′:4,5]thieno[2,3-d]pyrimidin-7-yl]-pentan-1-one]
32 | 10 to 40 µM | CC1(C)CCc2c(sc3nc(-c4ccncc4)nc(NC[C@@H](N)Cc4ccccc4)c23)C1 [compound 77, (S)-N*1*-(7,7-Dimethyl-2-pyridin-4-yl-5,6,7,8-tetrahydro-benzo[4,5]thieno[2,3-d]pyrimidin-4-yl)-3-phenyl-propane-1,2-diamine]
